Test results published in ChEMBL document CHEMBL1128066, “Synthesis and antiviral activity of dihydroxycyclohexyl pyrimidine and purine carbocyclic nucleosides” (Bioorg Med Chem Lett, 1995).
pEC50, pIC50: −log10 of the molar value.

How the values were obtained:
Format in all cases: functional, cell-based
PEU [1] = assay: Antiviral activity was evaluated by the plaque reduction method against Cytomegalovirus (CMV) in PEU cells; details: Homo sapiens
PEU [2] = assay: Compound was tested for its overt cytotoxicity in virus free PEU cell culture; details: Homo sapiens
Vero [3] = assay: Antiviral activity was evaluated by the plaque reduction method against Herpes virus 1 (HSV-1) in Vero cells; details: Chlorocebus sabaeus
Vero [4] = assay: Antiviral activity was evaluated by the plaque reduction method against Herpes virus 2 (HSV-2) in Vero cells; details: Chlorocebus sabaeus

Row | pEC50 (PEU [1]) | Structure (SMILES) | pIC50 (PEU [2]) | pEC50 (Vero [3]) | pEC50 (Vero [4])
1 | 5.00 | O=c1ccn([C@@H]2CC[C@H](OCc3ccccc3)C[C@H]2O)c(=O)[nH]1 | < 3.60 | 3.80 | 3.80
2 | 3.85 | Nc1nc(O)c2ncn(C3CCC(OCc4ccccc4)CC3O)c2n1 (configuration not stated) | < 3.60 | 4.67 | 4.66
3 | 6.01 | O=c1ccn(C2CC(O)CCC2O)c(=O)[nH]1 (configuration not stated) | < 3.60 | 5.00 | 6.01
4 | 5.00 | O=c1ccn(C2CCC(O)CC2O)c(=O)[nH]1 (configuration not stated) | < 3.60 | 6.01 | 6.01

More lines, now with the values behind:

Row | Structure (SMILES) | pEC50 (PEU [1]) | pIC50 (PEU [2]) | pEC50 (Vero [3]) | pEC50 (Vero [4])
5 | O=c1ccn([C@@H]2C[C@@H](OCc3ccccc3)CC[C@H]2O)c(=O)[nH]1 | 5.00 | < 3.60 | 5.00 | 5.00
6 | Nc1nc(O)c2ncn(C3CCC(O)CC3O)c2n1 (configuration not stated) | 3.73 | < 3.60 | 3.73 | 3.73
7 | Nc1ncnc2c1ncn2C1CCC(O)CC1O (configuration not stated) | 3.70 | < 3.60 | 4.55 | 4.52
8 | Nc1ncnc2c1ncn2C1CCC(OCc2ccccc2)CC1O (configuration not stated) | 3.83 | < 3.60 | 4.77 | 4.79
